The record followed here is paper PMC4279175, “Mechanisms Underlying the Antinociceptive, Antiedematogenic, and Anti-Inflammatory Activity of the Main Flavonoid from Kalanchoe pinnata” (Evidence-based Complementary and Alternative Medicine : eCAM, 2014).

One test addresses T1, COX-1 (Ovis aries, UniProt P05979).
T1 construct: gene PTGS1
T1 sequence (P05979 25-600): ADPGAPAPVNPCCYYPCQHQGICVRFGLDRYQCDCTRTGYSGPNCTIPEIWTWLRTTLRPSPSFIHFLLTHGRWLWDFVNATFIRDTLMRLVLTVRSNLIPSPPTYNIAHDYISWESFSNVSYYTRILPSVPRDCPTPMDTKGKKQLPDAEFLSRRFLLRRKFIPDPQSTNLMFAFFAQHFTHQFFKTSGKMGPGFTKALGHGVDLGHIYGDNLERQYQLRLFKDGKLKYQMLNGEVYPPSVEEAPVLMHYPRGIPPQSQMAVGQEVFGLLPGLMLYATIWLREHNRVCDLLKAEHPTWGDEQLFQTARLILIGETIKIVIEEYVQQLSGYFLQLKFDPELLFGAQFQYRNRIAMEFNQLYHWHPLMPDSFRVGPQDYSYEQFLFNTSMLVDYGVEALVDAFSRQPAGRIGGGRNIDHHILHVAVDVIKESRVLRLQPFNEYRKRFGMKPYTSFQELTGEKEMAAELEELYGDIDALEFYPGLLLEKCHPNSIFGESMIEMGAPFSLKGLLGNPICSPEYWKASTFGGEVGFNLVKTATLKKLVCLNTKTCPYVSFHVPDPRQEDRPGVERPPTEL
In words: colorimetric COX (ovine) inhibitor screening assay kit (Cayman […]). Type of test: biochemical.

In the next test the target is T2, COX-2 (Ovis aries, UniProt P79208).
T2 construct: gene PTGS2
T2 sequence (P79208 17-603): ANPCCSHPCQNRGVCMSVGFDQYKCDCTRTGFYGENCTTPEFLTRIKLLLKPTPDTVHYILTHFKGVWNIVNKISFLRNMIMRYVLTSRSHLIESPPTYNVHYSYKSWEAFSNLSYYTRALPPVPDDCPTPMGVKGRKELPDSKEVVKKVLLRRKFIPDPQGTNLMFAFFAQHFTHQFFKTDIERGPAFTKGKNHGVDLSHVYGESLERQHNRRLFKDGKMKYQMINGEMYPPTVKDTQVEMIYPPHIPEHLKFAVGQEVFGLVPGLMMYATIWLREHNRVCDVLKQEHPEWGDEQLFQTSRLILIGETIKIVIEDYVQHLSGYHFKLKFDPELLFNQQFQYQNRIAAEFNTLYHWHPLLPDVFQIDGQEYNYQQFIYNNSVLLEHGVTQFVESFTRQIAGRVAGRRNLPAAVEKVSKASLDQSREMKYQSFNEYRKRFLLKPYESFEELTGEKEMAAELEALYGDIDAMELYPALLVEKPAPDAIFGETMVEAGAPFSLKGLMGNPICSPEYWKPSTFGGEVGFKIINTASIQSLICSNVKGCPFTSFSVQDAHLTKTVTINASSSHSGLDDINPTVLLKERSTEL
Description: colorimetric COX (ovine) inhibitor screening assay kit (Cayman […]); […] maximum inhibition at […]. Type of test: biochemical.

pIC50: −log10 of the molar value.

The term pIC50 denotes −log10 of the IC50, conventionally taken in molar units. Low values mean a high IC50, high ones a low IC50. With `C[C@@H]1O[C@@H](Oc2c(-c3ccc(O)c(O)c3)oc3cc(O)cc(O)c3c2=O)[C@H](O[C@@H]2OC[C@H](O)[C@H](O)[C@H]2O)[C@H](O)[C@H]1O` [KPFV, quercetin 3-O-α-L-arabinopyranosyl (1 → 2) α-L-rhamnopyranoside], the pIC50 is 4.42 on COX-1 and under 4.08 on COX-2.
